Where two headings read alike, the source gives them in different places.
Molecular target: μ-opioid receptor (Homo sapiens (Human), UniProt P35372)
Test: μ-opioid receptor [35S]GTPγS functional assay, HEK-293 or CHO cells
Assay type: biochemical
Details: HEK-293 or CHO cells; for EC50: read-out: GTPγS μ EC50; for Emax: relative to DAMGO
Method: [^35S]GTPγS functional assays were conducted using freshly thawed μ-receptor membranes prepared in-house from a cell line expressing recombinant opioid receptor in a HEK-293, CHO or U-2 OS cell background, or purchased from a commercial source (Perkin Elmer, Shelton, Conn.; or DiscovRx, Fremont, Calif.). Assay reactions were prepared by sequentially adding the following reagents to binding buffer (100 mM NaCl, 10 mM MgCl2, 20 mM HEPES, pH 7.4) on ice (final concentrations indicated): membrane protein (0.026 mg/mL), saponin ([…]), GDP ([…]) and [^35S]GTPγS (0.20 nM; Perkin Elmer, Shelton, Conn.). The prepared membrane solution (190 μl/well) was transferred to 96-shallow well polypropylene plates containing 10 μl of 20× concentrated stock solutions of the agonist [D-Ala^2, N-methyl-Phe^4 Gly-ol^5]-enkephalin (DAMGO) prepared in dimethyl sulfoxide (DMSO). Plates were incubated for 30 min at about 25° C. with shaking. Reactions were terminated by rapid filtration onto 96-well Unifilter GF/B filter plates (Perkin Elmer, Shelton, Conn.) using a 96-well tissue harvester (Perkin Elmer, Shelton, Conn.) followed by three filtration washes with 200 μl of ice-cold wash buffer (10 mM NaH2PO4, 10 mM Na2HPO4, pH 7.4). Filter plates were subsequently dried at 50° C. for 2-3 hr. BetaScint scintillation cocktail (Perkin Elmer, Shelton, Conn.) was added (50 μl/well) and plates were counted using a Packard Top-Count for 1 min/well. Data were analyzed using the sigmoidal dose-response curve fitting functions in GraphPad PRISM v. 3.0, or an in-house function for non-linear, sigmoidal dose-response curve-fitting.
μ GTP EC50 is the concentration of a compound providing 50% of the maximal response for the compound at a μ-opioid receptor.
μ GTP Emax (%) is the maximal effect elicited by a compound relative to the effect elicited by DAMGO, a standard p agonist. Generally, the μ GTP Emax (%) value measures the efficacy of a compound to treat or prevent pain or other Conditions.
In TABLE 4, activity response of certain Compounds of the Invention to the μ- and κ-opioid receptors was determined as described above for functional assays using HEK-293 or CHO cells.

CN1CCC2(C)c3cc(O)ccc3C[C@@H]1C2NC(=O)Cc1ccccc1 (stereo in doubt) [Compound 29, N-((2R,6S,11S)-8-hydroxy-3,6-dimethyl-1,2,3,4,5,6-hexahydro-2,6-methanobenzo[d]azocin-11-yl)-2-phenylacetamide]
EC50 (bound given in uM): > 20 µM | Emax: 1%

CN1CCC2(C)c3cc(O)ccc3C[C@@H]1C2NC(=O)Cc1ccsc1 (stereo in doubt) [Compound 31, N-((2R,6S,11S)-8-hydroxy-3,6-dimethyl-1,2,3,4,5,6-hexahydro-2,6-methanobenzo[d]azocin-11-yl)-2-(thiophen-3-yl)acetamide]
EC50 (bound given in uM): > 20 µM | Emax: 1%

CN1CCC2(C)c3cc(O)ccc3C[C@@H]1C2NC(=O)/C=C/c1ccoc1 (stereo in doubt) [Compound 32, (E)-3-(furan-3-yl)-N-((2R,6S,11S)-8-hydroxy-3,6-dimethyl-1,2,3,4,5,6-hexahydro-2,6-methanobenzo[d]azocin-11-yl)acrylamide]
EC50 (bound given in uM): > 20 µM | Emax: 2.33 ± 0.88%

CN1CCC2(C)c3cc(O)ccc3C[C@@H]1C2NC(=O)CCC(=O)Nc1ccc(F)cc1F (stereo in doubt) [Compound 34, N^1-(2,4-difluorophenyl)-N^4-((2R,6S,11S)-8-hydroxy-3,6-dimethyl-1,2,3,4,5,6-hexahydro-2,6-methanobenzo[d]azocin-11-yl)succinamide]
EC50 (bound given in uM): > 20 µM | Emax: 2.67 ± 0.33%

CN(CC1CCN(S(=O)(=O)Cc2ccccc2)CC1)C1[C@H]2Cc3ccc(O)cc3C1(C)CCN2C (stereo in doubt) [Compound 58, (2R,6S,11S)-11-(((1-(benzylsulfonyl)piperidin-4-yl)methyl)(methyl)amino)-3,6-dimethyl-1,2,3,4,5,6-hexahydro-2,6-methanobenzo[d]azocin-8-ol]
EC50: 0.0132 ± 0.00071 µM | Emax: 58 ± 7.55%

CC(C)CS(=O)(=O)N1CCC(CN(C)C2[C@H]3Cc4ccc(O)cc4C2(C)CCN3C)CC1 (stereo in doubt) [Compound 59, (2R,6S,11S)-11-(((1-(isobutylsulfonyl)piperidin-4-yl)methyl)(methyl)amino)-3,6-dimethyl-1,2,3,4,5,6-hexahydro-2,6-methanobenzo[d]azocin-8-ol]
EC50: 0.0528 ± 0.005 µM | Emax: 27 ± 1.53%

CN(CC1CCN(S(=O)(=O)C2CCCC2)CC1)C1[C@H]2Cc3ccc(O)cc3C1(C)CCN2C (stereo in doubt) [Compound 60, (2R,6S,11S)-11-(((1-(cyclopentylsulfonyl)piperidin-4-yl)methyl)(methyl)amino)-3,6-dimethyl-1,2,3,4,5,6-hexahydro-2,6-methanobenzo[d]azocin-8-ol]
EC50: 0.012 ± 0.00174 µM | Emax: 22.3 ± 2.34%

CN1CCC2(C)c3cc(O)ccc3C[C@@H]1C2NS(=O)(=O)Cc1ccccc1 (stereo in doubt) [Compound 101, N-((2R,6S,11S)-8-hydroxy-3,6-dimethyl-1,2,3,4,5,6-hexahydro-2,6-methanobenzo[d]azocin-11-yl)-1-phenylmethanesulfonamide]
EC50 (bound given in uM): > 20 µM | Emax: 6 ± 4.06%

CN1CCC2(C)c3cc(O)ccc3C[C@@H]1C2NS(=O)(=O)c1ccccc1 (stereo in doubt) [Compound 102, N-((2R,6S,11S)-8-hydroxy-3,6-dimethyl-1,2,3,4,5,6-hexahydro-2,6-methanobenzo[d]azocin-11-yl)benzenesulfonamide]
EC50 (bound given in uM): > 20 µM | Emax: -1%

CN1CC[C@@]2(C)c3cc(O)ccc3C[C@@H]1[C@H]2NCCc1ccc(S(C)(=O)=O)cc1 [Compound 11, (2R,6S,11S)-3,6-dimethyl-11-((4-(methylsulfonyl)phenethyl)amino)-1,2,3,4,5,6-hexahydro-2,6-methanobenzo[d]azocin-8-ol]
EC50: 0.0356 ± 0.0059 µM | Emax: 16.7 ± 0.33%

CN1CC[C@@]2(C)c3cc(O)ccc3C[C@@H]1[C@H]2NCC1(O)CCCCC1 [Compound 13, (2R,6S,11S)-11-(((1-hydroxycyclohexyl)methyl)amino)-3,6-dimethyl-1,2,3,4,5,6-hexahydro-2,6-methano-benzo[d]azocin-8-ol]
EC50: 1.07 ± 0.172 µM | Emax: 45.7 ± 1.76%

CN1CC[C@@]2(C)c3cc(O)ccc3C[C@@H]1[C@@H]2NCC1(O)CCCCC1 [Compound 14, (2R,6S,11R)-11-(((1-hydroxycyclohexyl)methyl)amino)-3,6-dimethyl-1,2,3,4,5,6-hexahydro-2,6-methanobenzo[d]azocin-8-ol]
EC50: 8.69 ± 2.27 µM | Emax: 15 ± 1.58%

CN1CC[C@@]2(C)c3cc(O)ccc3C[C@@H]1[C@@H]2NCCOc1ccccc1 [Compound 15, (2R,6S,11R)-3,6-dimethyl-11-((2-phenoxyethyl)amino)-1,2,3,4,5,6-hexahydro-2,6-methanobenzo[d]azocin-8-ol]
EC50: 0.124 ± 0.0204 µM | Emax: 97.7 ± 1.76%

CN1CC[C@@]2(C)c3cc(O)ccc3C[C@@H]1[C@@H]2NCCC1CCCCC1 [Compound 16, (2R,6S,11R)-11-((2-cyclohexylethyl)amino)-3,6-dimethyl-1,2,3,4,5,6-hexahydro-2,6-methanobenzo[d]azocin-8-ol]
EC50: 1.27 ± 0.0901 µM | Emax: 77.3 ± 3.84%

CN1CC[C@@]2(C)c3cc(O)ccc3C[C@@H]1[C@H]2NCCC1CCCCC1 [Compound 17, (2R,6S,11 S)-11-((2-cyclohexylethyl)amino)-3,6-dimethyl-1,2,3,4,5,6-hexahydro-2,6-methanobenzo[d]azocin-8-ol]
EC50: 0.0929 ± 0.00079 µM | Emax: 55.3 ± 4.1%

CN1CC[C@@]2(C)c3cc(O)ccc3C[C@@H]1[C@@H]2NCCCCNC(=O)OC(C)(C)C [Compound 18, Tert-butyl (4-(((2R,6S,11R)-8-hydroxy-3,6-dimethyl-1,2,3,4,5,6-hexahydro-2,6-methanobenzo[d]azocin-11-yl)amino)butyl)carbamate]
EC50: 0.124 ± 0.0183 µM | Emax: 48.4 ± 3.28%

CN1CC[C@@]2(C)c3cc(O)ccc3C[C@@H]1[C@H]2NCCCCNC(=O)OC(C)(C)C [Compound 19, Tert-butyl (4-(((2R,6S,11S)-8-hydroxy-3,6-dimethyl-1,2,3,4,5,6-hexahydro-2,6-methanobenzo[d]azocin-11-yl)amino)butyl)carbamate]
EC50 (bound given in uM): > 20 µM | Emax: 0%

CN1CC[C@@]2(C)c3cc(O)ccc3C[C@@H]1[C@@H]2NC(=O)Nc1ccc(C#N)cc1 [Compound 27, 1-(4-Cyanophenyl)-3-((2R,6S,11R)-8-hydroxy-3,6-dimethyl-1,2,3,4,5,6-hexahydro-2,6-methanobenzo[d]azocin-11-yl)urea]
EC50 (bound given in uM): > 20 µM | Emax: 0%

CN1CC[C@@]2(C)c3cc(O)ccc3C[C@@H]1[C@@H]2N(C)C(=O)Cc1ccc(S(C)(=O)=O)cc1 [Compound 28, N-((2R,6S,11R)-8-hydroxy-3,6-dimethyl-1,2,3,4,5,6-hexahydro-2,6-methanobenzo[d]azocin-11-yl)-N-methyl-2-(4-(methylsulfonyl)phenyl)acetamide]
EC50: 0.182 ± 0.012 µM | Emax: 84.7 ± 1.2%

CN1CC[C@@]2(C)c3cc(O)ccc3C[C@@H]1[C@@H]2NC(=O)CC(=O)Nc1ccc(F)cc1F [Compound 30, N^1-(2,4-difluorophenyl)-N^3—((2R,6S,11R)-8-hydroxy-3,6-dimethyl-1,2,3,4,5,6-hexahydro-2,6-methanobenzo[d]azocin-11-yl)malonamide]
EC50 (bound given in uM): > 20 µM | Emax: 2.67 ± 3.67%

CN1CC[C@@]2(C)c3cc(O)ccc3C[C@@H]1[C@@H]2NC(=O)Cc1ccc(S(C)(=O)=O)cc1 [Compound 33, N-((2R,6S,11R)-8-hydroxy-3,6-dimethyl-1,2,3,4,5,6-hexahydro-2,6-methanobenzo[d]azocin-11-yl)-2-(4-(methylsulfonyl)phenyl)acetamide]
EC50: 5.28 ± 1.26 µM | Emax: 13%

CN1CC[C@@]2(C)c3cc(O)ccc3C[C@@H]1[C@H]2N(C)C(=O)Cc1ccc(S(C)(=O)=O)cc1 [Compound 35, N-((2R,6S,11S)-8-hydroxy-3,6-dimethyl-1,2,3,4,5,6-hexahydro-2,6-methanobenzo[d]azocin-11-yl)-N-methyl-2-(4-(methylsulfonyl)phenyl)acetamide]
EC50 (bound given in uM): > 20 µM | Emax: 2 ± 0.41%

CN1CC[C@@]2(C)c3cc(O)ccc3C[C@@H]1[C@@H]2N(C)CC(=O)Nc1ccc(C(F)(F)F)cc1 [Compound 41, 2-(((2R,6S,11R)-8-hydroxy-3,6-dimethyl-1,2,3,4,5,6-hexahydro-2,6-methanobenzo[d]azocin-11-yl)(methyl)amino)-N-(4-(trifluoromethyl)phenyl)acetamide]
EC50 (bound given in uM): > 20 µM | Emax: 5.33 ± 1.45%

COc1ccc2c(c1)[C@]1(C)CCN(C)[C@H](C2)[C@@H]1N(C)C(=O)CN1CCNC(=O)C1 [Compound 44, N-((2R,6S,11R)-8-methoxy-3,6-dimethyl-1,2,3,4,5,6-hexahydro-2,6-methanobenzo[d]azocin-11-yl)-N-methyl-2-(3-oxopiperazin-1-yl)acetamide]
EC50 (bound given in uM): > 20 µM | Emax: 43 ± 2.52%

From US9975854B2, “Benzomorphan analogs and use thereof” (Purdue Pharma L.P., priority 2014, dated 2018)
